Experimental findings from patent publication US20210330611A1, “THERAPY FOR NEUROLOGICAL DISEASES/DISORDERS” (priority 2020, published 2021) are described below.

The test system of data set [1] is fibrin-induced microglia activation. The experiment in a line: Image-based assay of fibrin-induced microglia activation (HTS and dose response). It counts as cell-based, rat. The note with it: for pIC50 / IC50 / inhibition at 10 µM: Rattus norvegicus, Microglia; for pIC50: read-out: Fibrin IC50; for IC50: read-out: Fibrin IC50 (uM) (Suppl. Table 7); for inhibition at 10 µM: primary microglia HTS, fibrin stimulation, increased cell size (>800 μm^2) as marker of activation, read-out: Fibrin % inhibition.

The test system of data set [2] is LPS-induced microglia activation. The experiment in a line: Image-based assay of LPS-induced microglia activation (HTS and dose response). It is filed as cell-based, rat. The note with it: Rattus norvegicus, Microglia; for pIC50: read-out: LPS IC50; for inhibition at 10 µM: primary microglia HTS, LPS stimulation, increased cell size (>800 μm^2) as marker of activation, read-out: LPS % inhibition; for IC50: read-out: LPS IC50 (uM) (Suppl. Table 7).

Data set [3] relates to fibrin- and LPS-induced microglia activation. The experiment in a line: cells. The note with it: for inhibition at 10 µM: Rattus norvegicus. It counts as cell-based, rat.
A short description of data set [4]: in vitro. The note with it: rat, Cell Toxicity IC50 (uM) [cFib assay].
The nature of data set [5]: in vitro. The note with it: rat.
The subject of data set [6] is primary rat microglia. The experiment in a line: Cell toxicity (dead cells, size <150 μm2) in LPS assay. The note with it: for LPS % cell toxicity: primary microglia HTS, LPS stimulation, decreased size (<150 μm^2) as marker of toxicity; for IC50: read-out: Cell Toxicity IC50 (uM) [LPS assay], LPS assay.
Data set [7] deals with primary rat microglia. The experiment in a line: Cell toxicity (dead cells, size <150 μm2) in coated fibrin (cFib) assay.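 On Fibrin % cell toxicity: share of dead cells sized under 150 µm2 at 10 µM in fibrin-stimulated microglia HTS.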 The note with it: primary microglia HTS, fibrin stimulation; decreased size (<150 μm^2) as marker of toxicity.
The mark [8] stands for this setting: 48 h, Table 1, dose response 0.001-20 μM, triplicates, primary rat microglia, 48 h.
Where [9] appears, read: dose response, fibrin-induced microglia activation.
The mark [10] stands for this setting: fibrin-induced microglia activation, dose response.
Where [11] appears, read: LPS-induced microglia activation, dose response.
Setting [12] is: dose response, LPS-induced microglia activation.
The mark [13] stands for this setting: HTS of 1907 compounds, quadrant by fibrin and LPS inhibition.
Setting [14] is: Microglia, Table 3, read-out: Cherry-picked Hit (Suppl. Table 7).
Setting [15] is: Microglia, HTS hit classification, read-out: Hit.
Setting [16] is: quadrant by fibrin and LPS inhibition in HTS of 1907 compounds.

pIC50: −log10 of the molar value. Structures can show the parent of a compound that is named as a salt. Where two headings read alike, the source gives them in different places. A value given as a limit tells only on which side of the number the result lay.

A word on the pIC50: it is −log10 of the IC50, conventionally taken in molar units. Broadly, the IC50 is the concentration at which inhibition is half-maximal. On to `c1ccc2c(c1)OCC(C1=NCCN1)O2` (centres unmarked) [Idazoxan hydrochloride, reference compound], for which the “Fibrin Selectivity” value in data set [1] was found to be 5. Further, the “Fibrin Selectivity (LOG10)” value in data set [1] is 0.69. For the same molecule, the pIC50 is 6.40 in data set [1] (setting [8]); 6.40 in data set [1] (setting [9]); 5.70 in data set [2] (setting [8]); 5.70 in data set [2] (setting [12]); less than 4.70 in the data set “in vitro [5]”. The concentration for half-maximal inhibition (IC50) in data set [1] (Table 3) was 0.4 µM; in data set [1] (setting [10]), 0.4 µM; in data set [2] (setting [11]), 2 µM; in data set [2] (Table 3) it was 2 µM; in the data set “in vitro [4]” (Table 3), greater than 20 µM; in “in vitro [4]” (cFib assay) it was greater than 20 µM. The 50% inhibitory concentration (IC50) with primary rat microglia [6] was greater than 20 µM. Besides, the inhibition at 10 µM in data set [1] was 70%; in data set [2] (48 h), 14%; in data set [3] (setting [14]) it was greater than 50%; in data set [3] (setting [15]), greater than 50%. Besides, the “Quadrant (FIG. 5b)” value in data set [3] (setting [13]) is “Q3”; in data set [3] (Table 1, screen at 10 μM) it was “Q3”; in data set [3] (Table 3, screen at 10 μM), “Q3”; in data set [3] (setting [16]), “Q3”. Also, in the data set on primary rat microglia [6], the “LPS % cell toxicity” value amounted to 0%. In the data set with primary rat microglia [7], the “Fibrin % cell toxicity” value came out at 2%.

On to `CCCCC1=NC2(CCCC2)C(=O)N1Cc1ccc(-c2ccccc2-c2nnn[nH]2)cc1` [Irbesartan, reference compound], for which the pIC50 (in data set [1] (setting [8]); in data set [1] (setting [9]); in data set [2] (setting [8]); in data set [2] (setting [12]); in the data set “in vitro [5]”) was less than 4.70 in each case. For the same molecule, the IC50 (in data set [1] (setting [10]); in data set [2] (setting [11]); in “in vitro [4]” (cFib assay)) was greater than 20 µM throughout. Besides, the inhibition at 10 µM in data set [1] is 66%; in data set [2] (48 h), 31%; in data set [3] (setting [15]) it was greater than 50%; in data set [3] (hit classification in microglia HTS, read-out: Cherry-picked Hit (Suppl. Table 7)) it was greater than 50%. Moreover, the “Quadrant (FIG. 5b)” value in data set [3] (setting [13]) is given as “Q3”; in data set [3] (Table 1, screen at 10 μM), “Q3”; in data set [3] (setting [16]), “Q3”. For the same molecule, the “LPS % cell toxicity” value with primary rat microglia [6] is on record as 1%. Besides, the “Fibrin % cell toxicity” value in the data set on primary rat microglia [7] was found to be 2%.

For the molecule `Cc1cc(NC(=O)C2=C(O)c3ccccc3S(=O)(=O)N2C)no1` [Isoxicam, reference compound], the “Fibrin Selectivity” value in data set [1] is 3. For the same molecule, in data set [1], the “Fibrin Selectivity (LOG10)” value was 0.43. Besides, the negative-log IC50 (pIC50) is 5.15 in data set [1] (setting [8]); 5.15 in data set [1] (setting [9]); less than 4.70 in data set [2] (setting [8]); less than 4.70 in data set [2] (setting [12]); less than 4.70 in “in vitro [5]”. Moreover, the half-maximal inhibitory concentration (IC50) is 7 µM in data set [1] (Table 3); 7 µM in data set [1] (setting [10]); greater than 20 µM in data set [2] (setting [11]); greater than 20 µM in data set [2] (Table 3); greater than 20 µM in the data set “in vitro [4]” (Table 3); greater than 20 µM in the data set “in vitro [4]” (cFib assay). Besides, in the data set with primary rat microglia [6], the half-inhibitory concentration (IC50) is greater than 20 µM. Besides, the inhibition at 10 µM was 67% in data set [1], 30% in data set [2] (48 h), greater than 50% in data set [3] (setting [14]) and greater than 50% in data set [3] (setting [15]). Besides, the “Quadrant (FIG. 5b)” value in data set [3] (setting [13]) was “Q3”; in data set [3] (Table 1, screen at 10 μM), “Q3”; in data set [3] (Table 3, screen at 10 μM), “Q3”; in data set [3] (setting [16]), “Q3”. In the data set on primary rat microglia [6], the “LPS % cell toxicity” value is 1%. The “Fibrin % cell toxicity” value with primary rat microglia [7] was 1%.
